Source: paper PMC11705955, “Lack of activity of HIV-1 integrase strand-transfer inhibitors on recombinase activating gene (RAG) activity at clinically relevant concentrations” (Microbiology Spectrum, 2024)
Like-named read-outs stand apart in the source and are kept apart here.

Columns and labels:
[1] = 5-day cytotoxicity assay with Cell Titer Glo readout, HUH7; format: cell-based; details: human
Description: (§1) Supplemental Table S2. CC50 values for INSTIs in 5- day cytotoxicity as says with Cell Titer
(§2) Expi293F GALPC3 GALHEP HUH7 MRC5 MT4 PBMC PBMC
(§3) Kidney Prostate Hepatoma Hepatoma Lung T-cell line Primary Primary
(§4) (embryonic) cancer cell cell line cell line fibroblast cells

PBMC primary cells = test: 5-day cytotoxicity assay with Cell Titer Glo readout, PBMC; format: cell-based
Description: as §1, §2, §3, §4

[2] = as above; format: cell-based
Description: as §1, §2, §3, §4

[3] = target: T1, recombinant human core RAG1 (AA387-1011)/core RAG2 (AA1-387) in the presence of HMGB1 (Homo sapiens, UniProt P15918+P55895); test: Biochemical RAG DNA cleavage assay (gel-based, dsDNA 12RSS/23RSS substrate); details: for IC50: 25 nM RAG1-RAG2, 575 nM HMGB1, 10 nM dsDNA, 5 mM MgCl2, 1 h 37°C, no serum; for Inhibitory activity against RAG1/RAG2 cleavage: clinically relevant / supratherapeutic concentrations
T1 construct: made in house; host or cells: RAG1/RAG2 co-expressed in Expi293F GnTI human cells; HMGB1 in E. coli BL21DE3
T1 sequence (P15918 387-1011): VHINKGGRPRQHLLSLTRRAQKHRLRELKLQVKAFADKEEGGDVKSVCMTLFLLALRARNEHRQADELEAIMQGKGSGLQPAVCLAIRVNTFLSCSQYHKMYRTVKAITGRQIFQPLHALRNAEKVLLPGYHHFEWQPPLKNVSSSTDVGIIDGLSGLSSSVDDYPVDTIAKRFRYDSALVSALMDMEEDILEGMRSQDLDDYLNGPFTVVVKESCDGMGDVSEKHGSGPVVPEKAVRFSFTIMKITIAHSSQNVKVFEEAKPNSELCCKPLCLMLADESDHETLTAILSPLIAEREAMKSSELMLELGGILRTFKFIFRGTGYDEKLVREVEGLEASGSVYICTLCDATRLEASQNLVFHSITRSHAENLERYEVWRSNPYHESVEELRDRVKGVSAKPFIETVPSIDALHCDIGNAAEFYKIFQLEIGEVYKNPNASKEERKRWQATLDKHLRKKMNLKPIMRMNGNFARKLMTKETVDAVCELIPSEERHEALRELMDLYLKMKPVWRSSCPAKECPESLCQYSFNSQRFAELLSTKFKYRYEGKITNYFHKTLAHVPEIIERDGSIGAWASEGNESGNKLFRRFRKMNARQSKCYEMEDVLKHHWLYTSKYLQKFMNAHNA
T1 sequence (P55895 1-387): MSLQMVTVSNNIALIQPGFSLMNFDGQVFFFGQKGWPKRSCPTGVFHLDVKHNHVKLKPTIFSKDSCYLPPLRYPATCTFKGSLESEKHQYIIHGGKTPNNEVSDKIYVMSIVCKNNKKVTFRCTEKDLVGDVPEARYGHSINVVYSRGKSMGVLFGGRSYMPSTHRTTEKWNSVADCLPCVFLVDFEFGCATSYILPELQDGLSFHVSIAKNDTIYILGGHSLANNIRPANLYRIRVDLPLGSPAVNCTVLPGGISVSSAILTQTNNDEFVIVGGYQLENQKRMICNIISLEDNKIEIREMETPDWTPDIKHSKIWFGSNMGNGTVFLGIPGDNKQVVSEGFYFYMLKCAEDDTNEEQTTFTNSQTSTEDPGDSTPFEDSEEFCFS
Description: To directly observe the potential inhibition of RAG1/RAG2, we measured the effect of INSTIs on DNA cleavage by RAG1/RAG2 in the presence of HMGB1. This biochemical system utilizes pre-assembled recombinant human core RAG1 (AA387-1011)/core RAG2 (AA1-387) in the presence of excess truncated HMGB1 (AA1-163) and a linear dsDNA RSS substrate, using gel electrophoresis and a fluorescent dye to monitor cleavage products (Fig. 2A) ([24]). The dsDNA RSS substrate, containing both the 12RSS and 23RSS, was designed to have the different cleavage products resolved via gel electrophoresis. RAG1/RAG2 can singly cleave either the 12RSS or the 23RSS, or both, leading to potentially five different products in the reaction (Fig. 2B). HMGB1 orients RAG1/RAG2 for proper binding to the RSS substrate ([16]). We quantified the activity of RAG as the percentage of substrate conversion to a specific cleaved product, as separated by agarose gel electrophoresis and determined by the DNA-binding fluorescent dye. With the 569-bp substrate, a single cleavage of the 12RSS results in a 492-bp dsDNA and a 77-bp hairpin. Cleavage of the 23RSS alone produces a 433-bp dsDNA and a 136-bp hairpin. Successful cleavage of both RSSs results in a 356-bp dsDNA and both of the 77- and 136-bp hairpins. For the RAG activity analysis, we measured the amount of double cleaved product (356 bp) in relation to the amount of substrate (569 bp) at the end of the reaction. The optimal concentrations of RAG1/RAG2, HMGB1, and MgCl2 were determined through titration (Fig. S2). Because there is no direct RAG1/RAG2 inhibitor previously characterized, we used suramin, a polyanionic compound commonly used as a non-specific inhibitor for DNA/RNA binding or processing proteins as a control for inhibition ([25], [26]).
Prior to the cleavage assay, compounds at the designated concentrations were spotted into 96-well plates using the Tecan Digital D300e (Tecan, Mannedorf, Switzerland). RAG1/RAG2 was incubated with HMGB1 and MgCl2 on ice for at least 15 min in a reaction buffer (25-mM 3-(N-morpholino)propanesulfonic acid [MOPS], pH 7.0, 50-mM KCl, and 2-mM DTT). After the initial incubation, the enzyme solution was added to the compound plates and incubated for an additional 15 min at room temperature. dsDNA substrate in reaction buffer was added to the plates to initiate the reaction. The final conditions of the reaction are 25-nM RAG1–RAG2 complex, 575-nM HMGB1, 10-nM dsDNA substrate, and 5-mM MgCl2. After 1 h at 37°C, reactions were quenched by the addition of final concentrations of 0.19% SDS, 45.5-µg/mL Proteinase K, and 60-mM EDTA.
Glycerol was added to a final concentration of 7.6% in each sample, and samples were loaded onto non-denaturing 6% Tris–borate–EDTA (TBE) gels in 1× TBE buffer. The samples were run at 100 V for 1.5 h, and gels were stained with 1× SYBR Gold in 1× TBE for 20 min. The stained gels were imaged with an Amersham Typhoon Biomolecular Imager.
The gel images were analyzed using ImageQuant software (Cytiva). The densities of the 569-bp-length substrate and fully cleaved 356-bp-length product were quantified. The product density was divided by the sum of substrate and product bands to obtain a percent product value. These calculated values were subtracted from a negative control (pre-quenched reaction where EDTA was added before reaction was initiated) and then normalized to the DMSO-treated control. The normalized data were plotted against concentration using GraphPad Prism (version 9.3; GraphPad Software, San Diego, CA, USA).

[4] = 5-day cytotoxicity assay with Cell Titer Glo readout, MT4; format: cell-based; details: human
Description: as §1, §2, §3, §4

Compound | CC50 at 5 day [1] [µM] | CC50 (PBMC primary cells; 5 day) [µM] | CC50 at 5 day ([2]; CC50) [µM] | IC50 [3] [µM] | CC50 at 5 day [4] [µM] | Inhibitory activity against RAG1/RAG2 cleavage [3] | CC50 at 5 day ([1]; HUH7, 5-day, Cell Titer Glo, read-out: CC50) [µM] | CC50 (PBMC primary cells; PBMC Lot2, 5-day, Cell Titer Glo, read-out: CC50) [µM] | CC50 at 5 day ([2]; PBMC Lot1, 5-day, Cell Titer Glo, read-out: CC50) [µM] | CC50 at 5 day ([4]; MT4, 5-day, Cell Titer Glo, read-out: CC50) [µM]
C[C@@H]1CCO[C@H]2Cn3cc(C(=O)NCc4ccc(F)cc4F)c(=O)c(O)c3C(=O)N12 [DTG, dolutegravir] | 28.7 | 17.9 | 28.4 | > 0.5 | 7.53 | – | – | – | – | –
C[C@H]1CO[C@@H]2Cn3cc(C(=O)NCc4ccc(F)cc4F)c(=O)c(O)c3C(=O)N12 [CAB, cabotegravir] | 21.5 | 29.5 | 30 | > 0.5 | 5.25 | do not show inhibitory activity | – | – | – | –
COc1cc2c(cc1Cc1cccc(Cl)c1F)c(=O)c(C(=O)O)cn2[C@H](CO)C(C)C [EVG, elvitegravir] | 20.4 | 14.1 | 14.6 | > 0.5 | 3.75 | do not show inhibitory activity | – | – | – | –
Cc1nnc(C(=O)NC(C)(C)c2nc(C(=O)NCc3ccc(F)cc3)c(O)c(=O)n2C)o1 [RAL, raltegravir] | – | – | – | > 10 | – | do not show inhibitory activity | > 44.4 | > 44.3 | > 44.3 | > 50
O=C(/C=C(\O)c1nnn[nH]1)c1c[nH]c2ccc(Cl)cc12 [p8, 5-CITEP] | > 44.4 | > 44.3 | > 44.3 | 58.2 ± 5.6 | > 50 | – | – | – | – | –
O=C(NCc1c(F)cc(F)cc1F)c1cn2c(c(O)c1=O)C(=O)N1[C@H]3CC[C@H](C3)O[C@@H]1C2 [BIC, bictegravir] | 38 | 24.2 | 28.5 | > 0.5 | 2.59 | do not show inhibitory activity | – | – | – | –
